One assay relates to Treg expansion. As to the kind of experiment: Treg expansion in co-culture with compound-treated splenic CD11C+ dendritic cells. The format is cell-based, mouse. Also on record: key to Treg expansion Dendritic Cells: ✓: using strict cutoffs with respect to DSHN for passing each metric; X: using strict cutoffs with respect to DSHN for passing each metric. On the procedure:
Preparation of Bone Marrow-Derived Macrophages (BMDMs) and Dendritic Cells. Bone marrow cells were collected from mouse tibia and femur. Cells were passed through 70-micron cell strainer and subsequently cultured 10 mL complete RPMI media supplemented with 20 ng/mL of recombinant murine M-CSF (576406; BioLegend, 315-02 PeproTech). On day 3, additional 5 ml of the complete media was added. On day 7, media was replaced. BMDMs were harvested on day 10 using cell stripper solution for further experiments. Dendritic cells were isolated from the spleens of wildtype, using mouse CD11c UltraPure MicroBeads (130-125-835; Miltenyi Biotec) according to the manufacturer's instructions) and cultured in RPMI medium supplemented with 10% heat-inactivated charcoal-stripped FBS, 50 μM β-mercaptoethanol, 1% sodium pyruvate, 1% nonessential amino acids, % penicillin/streptomycin, and 1% Glutamax.
In vitro Treg expansion assays. T cells were cultured in RPMI medium supplemented with 10% heat-inactivated charcoal-stripped FBS, 50 μM β-mercaptoethanol (Gibco), 1% sodium pyruvate, 1% nonessential amino acids, % penicillin/streptomycin, and 1% Glutamax (Gibco). Naïve CD4^+ T cells were isolated from the spleens of wildtype and OT-II, using Naive CD4^+ T Cell Isolation Kit (Miltenyi Biotec according to the manufacturer's instructions). T cells were labeled with the vital dye CFSE (BioLegend) or Cell Trace Violet (ThermoFisher) according to the manufacturer's instructions. For wildtype Treg expansion in presence of antigen presenting cells, naïve CD4^+ T cells were co-cultured with APC at indicated ratio in the presence of 0.5 μg/mL (anti-CD3 BioLegend), 0.5 ng/mL TGFβ (BioLegend) and 0.5 ng/ml IL-2 (BioLegend) for 72 hr at 37° C. For OT-II Treg expansion, OTII naïve CD4^+ T cells from OT-II mice were activated by antigen presentation by culturing BMDMs were primed with 10 μg/mL OVA323-339 (Bachem) and 0.5 μg/mL LPS (Sigma). naïve CD4+ T cells from OTII mice were co-cultured with primed APC at indicated ratio for 72 hrs. After 72 hrs of culture, cells were transferred into V-bottom plates (BD), pelleted by centrifugation and incubated with antibody staining mix containing Ghost Dye™ Red 780 viability dye diluted in PBS for 15 minutes at 4° C. Cell surface antigens were stained for 15 minutes at 4° C. with an antibody staining mix containing Ghost Dye™ Red 780 viability dye diluted in PBS. Cells were fixed and permeabilized with BD Cytofix/Cytoperm™ for 20 minutes at 4° C. Antibodies against intracellular antigens were diluted in 1×BD Perm/Wash™ buffer and cells were stained for 30 minutes at 4° C. Cytometry data were acquired on a LSRII, Fortessa, Symphony A1 (Becton Dickinson, NJ). Foxp3 induction was assessed by expression of FOXP3.

The test system of a further assay is EMT6 metastatic lesions. As to the kind of experiment: EMT6 metastatic mammary cancer (intravenous graft). The format is in vivo, mouse. From the text: FIG. 7A-7I. DSHN-OMe reduces tumor and metastatic growth in murine models, in a myeloid cell-NR0B2 dependent manner. (A) E0771 cells were grafted into control mice (NR0B2^+/+; LysMCre^+) or mice where NR0B2 was knocked out in myeloid immune cells (NR0B2^fl/fl; LysMCre^+). 8 days post-graft, daily treatment with placebo or DSHN-OMe was initiated and subsequent tumor growth followed through time. Different letters denote statistical difference on the final measurement (day 21, 2-Way ANOVA followed by Šidák's post-hoc, N=5-8). (B) Waterfall plot illustration of data in (A) showing tumor volume at final day of measurement. Asterisk indicates significant difference (Chi-squared test, P<0.05). (C) Lewis Lung cells were grafted into control mice (NR0B2^+/+; LysMCre^+) or mice where NR0B2 was knocked out in myeloid immune cells (NR0B2^fl/fl; LysMCre^+). 10 days post-graft, daily treatment with placebo or DSHN-OMe was initiated and subsequent tumor growth followed through time. Different letters denote statistical difference on the final measurement (day 21, 2-Way ANOVA followed by Šidák's post-hoc, N=8-13). (D) Waterfall plot illustration of data in (C) showing tumor volume at final day of measurement. Asterisk indicates significant difference (Chi-squared test, P<0.05). (E) DSHN-OMe is an effective treatment against metastatic 4T1 mammary cancer growth. 4T1 cells were grafted intravenously, and lung metastatic lesions allowed to establish for 3d before treatment commenced. Metastatic burden through time is presented above the metastatic burden on the final day of imaging in the middle panel (N=12-17/group, mixed-effects model followed by Tukey's multiple comparison test). Representative luciferase images in the bottom panel. (F) DSHN-OMe is an effective treatment against metastatic EMT6 mammary cancer growth. EMT6 cells were grafted intravenously, and lung metastatic lesions allowed to establish for 3d. DSHN-OMe was administered on days 4, 5, 8, 9 and 10 post-graft. 11d post-graft lungs were imaged ex vivo for luciferase (N=15/group). (G) EMT6 metastatic lungs were assessed for Ki67 mRNA and (H) FOXP3 mRNA. (I) EMT6 metastatic lungs were assessed for CD8+ cytotoxic T cells (CD8+). Asterisks indicate statistically significant differences.
Metastatic breast cancer urgently requires new therapeutic approaches. Therefore, we tested the ability of DSHN-OMe to reduce the subsequent growth of established metastases. 4T1 cells were introduced intravenously and lesions allowed to establish for 3d. Since ICB has been approved for a subset of TNBC patients, we also included groups treated with αPDL1. […] We confirmed these findings using a different model of murine TNBC, EMT6. […]

In the next assay the test system is Treg abundance. As to the kind of experiment: In vivo model of immune tolerance to a chronic antigen.

Regarding `CCN(CC)S(=O)(=O)c1cccc2cc(C(=O)OC)c(O)cc12` [DSHN-OMe, Methyl 5-(N,N-diethylsulfamoyl)-3-hydroxy-2-naphthoate], the “Tregs, splenic CD11C+ (DC-enriched) cells” value in the assay on Treg expansion (50 μM DSHN-OMe versus 100 μM DSHN) was “significantly fewer Tregs compared to twice the dose of DSHN”. For the same compound, the “Treg expansion Dendritic Cells” value in the assay with Treg expansion (pass/fail with respect to DSHN) was “✓”. In addition, in the assay with EMT6 metastatic lesions (lungs imaged ex vivo 11 d post-graft), the EMT6 metastatic burden result is reported as “significantly reduced metastatic burden”. Besides, in the assay on EMT6 metastatic lesions (mouse, in vivo), the “CD8+ cytotoxic T cells in EMT6 metastatic lungs” value is recorded as “increase in the relative abundance of CD8+ cytotoxic T cells”, the “Foxp3 expression in EMT6 metastatic lungs” value is recorded as “decreased Foxp3 expression” and the “Ki67 mRNA in EMT6 metastatic lungs” value is given as “decreased”.

Regarding `CCN(CC)S(=O)(=O)c1cccc2cc(C(=O)O)c(O)cc12` [DSHN, reference compound], the “Treg abundance in vivo” value in the assay on Treg abundance was “reduce Treg abundance”.

The record behind these values is patent US20260257992A1, “AGONISTS OF SMALL HETERODIMER PARTNER FOR CANCER THERAPY” (THE BOARD OF TRUSTEES OF THE UNIVERSITY OF ILLINOIS, priority 2023, published 2026).
